Measurements from patent US9156824B2, “CDC7 inhibitors” (Eli Lilly and Company, priority 2013, dated 2015).
Read-outs that look alike come from different tables or passages of the source.

Experiments:
[1] = tested on: phosphorylated MCM2 at Serine 53 (pMCM2-S53) in H1299 cells; assay: Acumen imaging assay for detection of phosphorylated MCM2 in H1299 cells; assay type: cell-based; conditions: 4 hours treatment, read-out: IC50, inhibition of pMCM2-S53
Experimental: The Acumen® eX3 is used to determine the effect of compounds on the formation of endogenous phosphorylated MCM2 at Serine 53 (pMCM2-S53). Phosphorylation of MCM2 by CDC7 is determined using specific anti-pMCM2-S53 antibody and quantified with fluorescent tagged secondary antibodies by Acumen® eX3 to monitor CDC7 activity in cells. Phosphorylation of MCM2 at Serine 53 is known to be correlated to CDC7 inhibition.
H1299 cells (ATCC #CRL-5803) are maintained in RPMI-1640 (Hyclone SH30809.01) growth medium supplemented with 10% FBS. Cells are harvested using standard cell culture procedures and then counted using Vi-Cell XR Cell Viability Analyzer (Beckman Counter). 3000-6000 H1299 cells in 100 μL of growth medium are plated into each well of Biocoat Poly-D-Lysine 96-well black/clear plate with flat bottom BioCoat™ Multiwell (Becton Dickinson) cell culture plates 356640 and incubated overnight at 37° C., 5% CO2.
Cells are treated with the test compound (50 μL/well) diluted in medium containing 0.6% DMSO and incubated for 4 hours at 37° C. To each well is added 7.4% formaldehyde (150 μL) diluted with PBS from 37% formaldehyde stock and the plates are incubated at room temperature for 30 minutes. Formaldehyde is removed and cold methanol (100 μL) is added. The plates are incubated for 20 minutes at 4° C. to permeabilize the cells. Plates are washed 3× with 100 μL/well of PBS. […] The plates are sealed with black seal and are read on the Acumen® eX3 (TTP LABTECH) using optical filter 500-530 nanometer and 575-640 nanometer for Alexa Fluor 488 and propidium iodide, respectively. The number of pMCM2-S53 positive cells is normalized to total cells for each well and are calculated as percent inhibition relative to on-plate controls. […]

[2] = tested on: pMCM2-S40/41 in Colo-205 xenograft tumors; assay: CDC7 in vivo target inhibition (IVTI) on pMCM2-S40/41 with Colo-205 xenograft tumor model; design: species or system mice; conditions: 4 hours following an oral dose
Experimental: Human colo-205 colorectal cancer cells (ATCC#CCL-222) are maintained in RPMI 1640 medium containing 10% FBS. Log phase growing cells are harvested, washed, and resuspended in a 1:1 mixture of serum free medium and Matrigel™ (Becton Dickinson). They are injected subcutaneously at 5×10^6 cells/animal/site in the rear flank as subcutaneous tumor xenograft models in balb/c (nu/nu) female mice (6-8 weeks with body weight of 20 to 25 gram/mouse). Animals are randomized at the mean tumor volume of 150 to 250 mm^3 mice, (v=1×w×0.536 where 1=larger of measured diameter and w=smaller of perpendicular diameter). Compound is administered by P.O. in a standard 1% HEC w/v, P80 0.25% v/v, Antifoam 1510-US 0.05% v/v formulation. […] Protein concentration from tumor lysates is determined by BCA assay (Thermo Scientific) and 5 to 10 μg of protein is separated by standard SDS-PAGE (BioRad Criterion™ gel) or (Invitrogen ePage™ gel). […] Levels of pMCM2-S40/41 are determined and quantified by either Licor or FUJI imagers and normalized to the total GAPDH level. The percent change inhibition of pMCM2-S40/41 band intensity is calculated using the average intensity of vehicle treated control tumors normalized to the GAPDH as the maximum signal. […]

CDC7/DBF4 = target: T1, CDC7/DBF4 (Homo sapiens, UniProt O00311); assay: CDC7/DBF4 in vitro enzyme assay (Transcreener Kinase ADP-FP); assay type: biochemical; conditions: ATP 5 μM, MCM2 400 nM, 60 minutes, read-out: IC50 against CDC7/DBF4 kinase
T1 construct: host or cells: insect cells
T1 sequence (O00311 whole entry): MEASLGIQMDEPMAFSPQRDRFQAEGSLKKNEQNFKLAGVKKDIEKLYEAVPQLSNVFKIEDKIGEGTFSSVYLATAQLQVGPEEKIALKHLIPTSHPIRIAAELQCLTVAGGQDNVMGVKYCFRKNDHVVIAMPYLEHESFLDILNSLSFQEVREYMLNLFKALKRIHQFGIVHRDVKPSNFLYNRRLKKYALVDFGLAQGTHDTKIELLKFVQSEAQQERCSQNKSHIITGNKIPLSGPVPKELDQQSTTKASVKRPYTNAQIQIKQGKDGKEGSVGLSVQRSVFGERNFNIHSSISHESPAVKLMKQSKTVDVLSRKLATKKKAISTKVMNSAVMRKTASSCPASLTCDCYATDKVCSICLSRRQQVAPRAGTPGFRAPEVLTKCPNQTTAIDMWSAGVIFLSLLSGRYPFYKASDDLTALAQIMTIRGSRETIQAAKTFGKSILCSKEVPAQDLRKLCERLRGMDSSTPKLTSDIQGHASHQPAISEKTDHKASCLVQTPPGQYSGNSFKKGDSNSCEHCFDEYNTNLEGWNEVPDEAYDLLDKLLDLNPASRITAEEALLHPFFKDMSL
T1 sequence (Q9UBU7 whole entry partner): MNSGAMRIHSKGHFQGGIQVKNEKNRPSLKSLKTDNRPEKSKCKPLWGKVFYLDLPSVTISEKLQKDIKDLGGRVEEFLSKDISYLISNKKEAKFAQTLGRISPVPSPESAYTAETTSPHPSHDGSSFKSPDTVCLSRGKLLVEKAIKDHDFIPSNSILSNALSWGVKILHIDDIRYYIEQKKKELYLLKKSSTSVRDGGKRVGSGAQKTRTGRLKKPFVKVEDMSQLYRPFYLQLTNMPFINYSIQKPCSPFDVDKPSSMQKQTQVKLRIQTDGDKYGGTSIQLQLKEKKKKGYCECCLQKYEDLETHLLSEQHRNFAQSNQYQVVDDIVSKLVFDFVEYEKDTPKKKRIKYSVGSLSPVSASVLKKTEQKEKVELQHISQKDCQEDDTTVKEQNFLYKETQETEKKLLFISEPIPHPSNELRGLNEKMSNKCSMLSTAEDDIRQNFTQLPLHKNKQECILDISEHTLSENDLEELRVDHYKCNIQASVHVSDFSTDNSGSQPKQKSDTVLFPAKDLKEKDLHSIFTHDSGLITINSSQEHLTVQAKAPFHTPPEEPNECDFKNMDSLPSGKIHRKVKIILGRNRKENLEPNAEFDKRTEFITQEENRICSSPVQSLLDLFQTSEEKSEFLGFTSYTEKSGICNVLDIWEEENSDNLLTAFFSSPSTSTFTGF
Experimental: The Transcreener™ Kinase ADP-FP assay is used to determine compound IC50 values against CDC7/DBF4 kinase. The Kinase ADP-FP assay assesses the activity of CDC7/DBF4 in the presence of compound inhibitors by measuring the concentration of ADP formed in a kinase reaction. The kinase reaction is performed using a 25 microliter reaction volume in 96 well assay plate. For the ADP-FP assay, the reagents are added to obtain the final reaction conditions of HEPES (25 mM) pH 7.5, 0.03% Triton® X-100, magnesium chloride (10 mM), DTT (1 mM), MCM2 (400 nM) (Amino Acid 1-209, a physiological substrate of CDC7/DBF4), spermine (4 mM), CDC7/DBF4 (2,640 ng/mL) (recombinant human CDC7/DBF4 expressed in insect cells), 4% dimethyl sulfoxide and serial dilutions of compound (diluted 1:3 from 20,000 nM to 1 nM). Enzyme and substrate is added to compound followed by ATP to 5 μM to start the reaction. The plates are incubated at room temperature for 60 minutes.
For the ADP-FP format add 25 microliters of a quench detection reagent containing HEPES (52 mM) pH 7.5, EDTA (20 mM), sodium chloride (0.4 M), polyoxyethyleneglycol dodecyl ether (0.02%) (BRIJ-35™), anti-ADP antibody (10 μg/mL), and ADP (4 nM) Transcreener® ADP Alexa Fluor® 633 tracer to quench the reaction. The plates are incubated for 1 hour, and then read in a Wallac EnVision™ 2104 Multilabel Reader (PerkinElmer) in Fluorescence Polarization mode using polarizing filters of Ex620nm and Em688nm wavelength. Millipolarization (mP) raw data is converted to micromolar ADP using a prepared ADP/ATP standard curve starting at 5 μM ADP 1:1 serial dilution in reaction buffer to 0.0025 μM ADP. The IC50 value for each compound is derived using percent inhibition data calculated from the μM ADP reaction data relative to on-plate controls (DMSO versus 100 mM EDTA inhibited enzyme controls). The percent inhibition and ten-point compound concentration data is then fitted to a four-parameter logistic equation.

[3] = tested on: panel of 114 cancer cell lines of colorectal, breast, lung, and blood (leukemia) origin; assay: In vitro antiproliferative assay (cell number counting); assay type: cell-based; conditions: for Number of Cell Lines that Die Rapidly: within 2 doubling times
Experimental: In vitro anti-proliferative activity of Example 2 is determined by cell number counting assays against a panel of 114 cancer cell lines of colorectal, breast, lung, and blood (leukemia) origin obtained from ATCC, HSRRB, RIKEN or ECACC. The cells are cultured and maintained in media per supplier's instructions. Cell doubling time of each cell line is determined and all cell lines are free of mycoplasma contamination. Cells are cultured overnight in 96-well plates before compound addition for anti-proliferative activity assays. Optimal cell seeding density is carefully evaluated for each cell lines by seeding the cell culture with 4 different cell densities in 100 μL media and taking into consideration of their doubling time and cell sizes. The seeding density that gave about 90% confluence at end of two doubling times is then selected for compound testing. Staurosporine is used with 1:3 dilution as a reference. Example 2 is prepared as a 4 mM DMSO stock and diluted in culture media in a 1:2 ratio. 50 μL of the media containing the compound is added to each well of the overnight 96-well culture to produce the desired final concentrations of 20, 10, 5, 2.5, 1.25, 0.625, 0.312, 0.156, 0.078 μM and DMSO control. Each treatment concentration has duplicate wells. The cells are further cultured for two doubling times in the presence of the compound. At end of treatment time, cells are first examined under a microscope for morphological changes, such as cell death or apparent cell size increases. Cells in each duplicate well are collected separately. Adherent cells are harvested by tripsinization first. Harvested cells are re-suspended in growth media and are counted using a cell counter.

| Structure (SMILES) | IC50 [1] | TEC70 (plasma concentration for 70% inhibition of pMCM2 normalized to GAPDH) [2] | TED70 (dose for 70% inhibition of pMCM2 normalized to GAPDH) [2] | IC50 (CDC7/DBF4) | Number of Cell Lines that Die Rapidly ([3]; Breast, of 17 cell lines) | Number of Cell Lines that Die Rapidly ([3]; Colorectal, of 29 cell lines) | Number of Cell Lines that Die Rapidly ([3]; Leukemia, of 23 cell lines) | Number of Cell Lines that Die Rapidly ([3]; Lung, of 39 cell lines) | Number of Cell Lines that Die Rapidly ([3]; Others, of 6 cell lines) | Number of Cell Lines that Die Rapidly ([3]; Total, of 114 cell lines) | IC50 ([3]; majority of the 114 cancer cell lines tested, read-out: anti-proliferative activity, pharmacologically relevant concentrations) | cancer cell lines showing particular sensitivity (massive cell death) ([3]; share of the 114 cell lines, within 2 doubling time treatment periods) | IC50 ([1]; Homo sapiens, NCI-H1299, 4 h) |
| --- | --- | --- | --- | --- | --- | --- | --- | --- | --- | --- | --- | --- | --- |
| CC1(c2ncncc2F)NC(=O)c2cc(-c3cn[nH]c3)ccc21 (single isomer, unassigned) [Example 3, 3-(5-Fluoropyrimidin-4-yl)-3-methyl-6-(1H-pyrazol-4-yl)isoindolin-1-one] | 290 nM | 1.8 μM | 2.6 mg/kg | 4.5 nM |  |  |  |  |  |  |  |  |  |
| CC1(c2ncncc2F)NC(=O)c2cc(-c3cn[nH]c3)ccc21 (single isomer, unassigned; isomer 2) [Example 2, 3-(5-Fluoropyrimidin-4-yl)-3-methyl-6-(1H-pyrazol-4-yl)isoindolin-1-one, Isomer 2] |  |  |  | 3.7 nM | 0 | 4 | 5 | 2 | 1 | 12 | < 8000 nM | about 10% | 261 nM |
